What was measured:
[1] = system: iPSC-derived cardiomyocytes (CMs); test: Doxorubicin exposure of cardiomyocytes differentiated from tet-luxCDABEF/tTA iPSCs, autobioluminescence imaging; format: cell-based; conditions: Homo sapiens, Cardiomyocyte, 18 hours exposure prior to imaging, read-out: estimated EC50
Procedure: FIG. 16. Human induced pluripotent stem cells (iPSCs) bearing genomically integrated polycistronic lux operon (luxCDABEF) under control of the tetracycline responsive promoter (tet-luxCDABEF) and a separately integrated CBA-driven transactivator (tTA) were differentiated into cardiomyocytes (CMs). After maturation for approximately 1.5 weeks, the CMs were subjected to doxorubicin exposure. CMs were exposed to doxorubicin at the indicated range of concentrations for 18 hours prior to imaging.

[2] = system: CM-luxAB/CDEF cardiomyocytes; test: Cardiotoxicity reporting by CM-luxAB/CDEF line, autobioluminescent output after 24 hours; format: cell-based; conditions: Homo sapiens, Cardiomyocyte, 24 hours of treatment
Procedure: The autobioluminescent CM-luxAB/CDEF line was treated with a range of doxorubicin (uM) concentrations, and autobioluminescent output was measured after 24 hours of treatment.
The CM-luxAB/CDEF line was treated with a range of doxorubicin concentrations, and the autobioluminescent output was measured after twenty-four (24) hours of treatment. The percent change in average radiance (p/s/cm^2/sr) relative to control was plotted against the corresponding doxorubicin (uM) treatment.

[3] = system: CM-luxAB/CDEF cardiomyocytes; test: Continuous cardiotoxicity monitoring with CM-luxAB/CDEF cardiomyocytes over 30 hours
iPSC-luxAB/CDEF cells = test: Compound toxicity tracking in iPSC-luxAB/CDEF line by autonomous luminescent output and MTT; format: cell-based, Human; conditions: range of concentrations, 24 hours
Procedure: First, iPSC-luxAB/CDEF cells were seeded in a volume of medium in two separate multi-well plates. Identical platings of untransfected cells were made along with platings of medium to serve as positive and negative controls. For the first plate, the cells were subjected to increasing concentrations of the cytotoxic compound doxorubin. For the second plate, the cells were subjected to increasing concentrations of the cytotoxic compound rotenone. The cells were then incubated under standard growth conditions for twenty four (24) hours. After this time period, the plates was imaged for luminescent output. Bioluminescent readings were obtained using a Synergyll plate reader (BioTek).
Following this reading, the plates were subjected to viability analysis using the MTT assay according to the manufacturer's instructions. MTT assay values were obtained as absorbance values at 570 nm using a Synergyll plate reader (BioTek) and reported as percentage of absorbance relative to untreated control cells. For all measurements, the background absorbance values derived from the medium only controls were subtracted to provide background corrected averages. Absorbance values from each treatment level were averaged, and the average values for each of the plates were used to determine standard errors of the mean for each assay.

Compound: COc1cccc2c1C(=O)c1c(O)c3c(c(O)c1C2=O)C[C@@](O)(C(=O)CO)C[C@@H]3O[C@H]1C[C@H](N)[C@H](O)[C@H](C)O1 [doxorubicin]
- EC50 [1]: 410 to 740 nM
- IC50 [2]: 290 nM
- time of exposure at which the IC50 stabilizes ([3]; kinetic IC50 values over time course, measured every 10 minutes): ~30 h
- autobioluminescent output with increasing concentrations ([3]; real time monitoring, 25 hours after addition): decreasing autobioluminescent output
- change of autonomous luminescent signal output indicative of cellular viability (iPSC-luxAB/CDEF cells): dose dependent changes

Source: patent US11046962B2, “Lux expression in cells and methods of use” (490 BioTech, Inc., priority 2019, dated 2021)
